According to patent US9133186B2, “Hetero ring-fused imidazole derivative having AMPK activating effect” (Shionogi & Co., Ltd., priority 2010, dated 2015):

Biological target: T1, human AMPK α1β1γ1 enzyme (Homo sapiens, UniProt Q13131+Q9Y478)
T1 construct: purchased Carna Biosciences, Inc
Assay: AMPK activator evaluation, Test Example 1 (mobility shift, FL-Peptide 7)
Format: biochemical
Conditions: human AMPK α1β1γ1, control without compound = 100%; for Emax: read-out: Emax (maximum rate of increase in activity within the measurement range)
Description: To a buffer solution consisting of a 50 mM HEPES-NaOH buffer solution (pH 7.0), 100 mM NaCl, 10 mM magnesium chloride, 0.1% bovine serum albumin, 0.2 mM sodium orthovanadate(V), 1 mM ethylene glycol-bis(2-aminoethyl ether)-N,N,N′,N′-tetraacetic acid (EGTA), 5 mM disodium (3-glycerophosphate and 2 mM dithiothreitol, a human AMPK α1β1γ1 enzyme (manufactured by Carna Biosciences, Inc.) was added in an amount to give a conversion rate of approximately 10% by reaction for 2 hours, and a compound dissolved in DMSO was added thereto so as to have a 1% DMSO concentration. The obtained liquid was left to stand for 10 minutes.
To the liquid, a substrate solution consisting of a 50 mM HEPES-NaOH buffer solution (pH 7.0), 100 mM NaCl, 10 mM magnesium chloride, 0.1% bovine serum albumin, 0.2 mM sodium orthovanadate(V), 1 mM ethylene glycol-bis(2-aminoethyl ether)-N,N,N′,N′ tetraacetic acid (EGTA), 5 mM disodium β-glycerophosphate, 2 mM dithiothreitol, 0.4 mM ATP and 3 μM FL-Peptide 7 (manufactured by Caliper Life Sciences, Inc.) was added in equal amount (10 μl in total). The obtained liquid was allowed to react at 25° C. for 2 hours, and 10 μl of 20 mM EDTA was then added thereto to stop the reaction.
To detect phosphorylated fluorescent substrates, the reaction liquid was applied to a measuring device, LabChip EZ Reader II manufactured by Caliper Life Science, Inc., for detecting fluorescence by using differences in mobility due to differences in charge. The setting conditions for the device were pressure, −1.5 PSI; upstream voltage, −2250 V; downstream voltage, −400 V; post sample buffer sip time, 40 seconds; final delay, 120 seconds; and peak order, Product First.

T1 sequence (Q13131 10-559 limits assumed): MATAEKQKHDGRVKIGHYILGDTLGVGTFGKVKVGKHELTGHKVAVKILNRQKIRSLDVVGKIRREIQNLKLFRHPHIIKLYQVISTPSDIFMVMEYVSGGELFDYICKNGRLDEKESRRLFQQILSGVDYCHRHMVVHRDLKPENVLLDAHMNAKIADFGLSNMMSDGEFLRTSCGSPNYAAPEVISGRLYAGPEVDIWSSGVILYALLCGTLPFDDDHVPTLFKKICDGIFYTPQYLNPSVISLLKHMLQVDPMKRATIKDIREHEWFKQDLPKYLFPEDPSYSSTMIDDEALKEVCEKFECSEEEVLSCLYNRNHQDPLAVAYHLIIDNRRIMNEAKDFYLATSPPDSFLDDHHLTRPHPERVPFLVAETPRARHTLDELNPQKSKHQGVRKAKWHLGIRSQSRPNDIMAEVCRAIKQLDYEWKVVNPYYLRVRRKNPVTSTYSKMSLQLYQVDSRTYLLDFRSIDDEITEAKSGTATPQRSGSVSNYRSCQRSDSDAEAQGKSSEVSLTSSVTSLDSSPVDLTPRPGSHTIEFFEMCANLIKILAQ
T1 sequence (Q9Y478 whole entry): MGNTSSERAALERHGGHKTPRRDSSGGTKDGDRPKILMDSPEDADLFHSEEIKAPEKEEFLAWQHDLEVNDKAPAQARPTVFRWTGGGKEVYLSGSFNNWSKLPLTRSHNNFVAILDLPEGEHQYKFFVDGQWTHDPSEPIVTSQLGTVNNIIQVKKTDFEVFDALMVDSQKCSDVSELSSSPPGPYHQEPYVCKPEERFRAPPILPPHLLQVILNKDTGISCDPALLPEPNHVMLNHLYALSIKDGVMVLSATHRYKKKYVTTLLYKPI
T1 sequence (P54619 whole entry partner): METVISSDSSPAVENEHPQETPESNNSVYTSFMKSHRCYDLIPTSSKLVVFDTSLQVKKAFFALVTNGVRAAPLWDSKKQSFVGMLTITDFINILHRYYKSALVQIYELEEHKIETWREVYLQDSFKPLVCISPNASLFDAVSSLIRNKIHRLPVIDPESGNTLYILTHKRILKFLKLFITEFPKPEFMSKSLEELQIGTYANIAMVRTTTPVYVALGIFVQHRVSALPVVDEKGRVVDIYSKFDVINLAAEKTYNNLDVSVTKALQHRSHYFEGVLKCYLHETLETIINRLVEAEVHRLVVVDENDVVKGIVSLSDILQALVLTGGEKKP

Structure (SMILES): CC(C)(C(N)=O)c1ccc(Oc2nc3nc(-c4ccc(C5(CO)CC5)cc4)c(Cl)cc3[nH]2)cc1 [Compound D-24]
- EC150 (compound concentration showing 150% relative to the control): 140 nM
- Emax: 198%

Structure (SMILES): CC(C)(NC(=O)CO)c1ccc(Oc2nc3nc(-c4ccc(N5CCOCC5)cc4)c(Cl)cc3[nH]2)cc1 [Compound D-25]
- EC150 (compound concentration showing 150% relative to the control): 31 nM
- Emax: 225%

Structure (SMILES): CC(=O)NC(C)(C)c1ccc(Oc2nc3nc(-c4cccc(N(C)C)c4)c(Cl)cc3[nH]2)cc1 [Compound D-26]
- EC150 (compound concentration showing 150% relative to the control): 82 nM
- Emax: 282%

Structure (SMILES): CNc1ncc(Oc2nc3nc(-c4ccc(N5CCOCC5)cc4)c(Cl)cc3[nH]2)cn1 [Compound D-31]
- EC150 (compound concentration showing 150% relative to the control): 19 nM
- Emax: 314%

Structure (SMILES): CC(=O)NCC(C)(C)c1ccc(Oc2nc3nc(-c4ccc(N5CCOCC5)cc4)c(Cl)cc3[nH]2)cc1 [Compound D-33]
- EC150 (compound concentration showing 150% relative to the control): 52 nM
- Emax: 220%

Structure (SMILES): CC(=O)NC(C)(C)c1ccc(Oc2nc3nc(-c4ccc(-c5ccccc5O)cc4)c(Cl)cc3[nH]2)cc1 [Compound D-39]
- EC150 (compound concentration showing 150% relative to the control): 0.6 nM
- Emax: 310%

Structure (SMILES): CNCC(C)(C)c1ccc(Oc2nc3nc(-c4ccc(N5CCOCC5)cc4)c(Cl)cc3[nH]2)cc1 [Compound D-41]
- EC150 (compound concentration showing 150% relative to the control): 8300 nM
- Emax: 159%

Structure (SMILES): CC(=O)NC(C)(C)c1ccc(Oc2nc3nc(-c4ccc(C5(CO)CC5)cc4)c(Cl)cc3[nH]2)cn1 [Compound D-42]
- EC150 (compound concentration showing 150% relative to the control): 260 nM
- Emax: 187%

Structure (SMILES): COCC(=O)NC(C)(C)c1ccc(Oc2nc3nc(-c4ccc(N5CCOCC5)cc4)c(Cl)cc3[nH]2)cc1 [Compound D-50]
- EC150 (compound concentration showing 150% relative to the control): 11 nM
- Emax: 225%

Structure (SMILES): CC(C)(NS(C)(=O)=O)c1ccc(Oc2nc3nc(-c4ccc(N5CCOCC5)cc4)c(Cl)cc3[nH]2)cc1 [Compound D-52]
- EC150 (compound concentration showing 150% relative to the control): 2800 nM
- Emax: 169%

Structure (SMILES): CC(C)(C(N)=O)c1ncc(Oc2nc3nc(-c4ccc(N5CCOCC5)cc4)c(Cl)cc3[nH]2)cn1 [Compound D-54]
- EC150 (compound concentration showing 150% relative to the control): 110 nM
- Emax: 252%

Structure (SMILES): CC(C)(C(=O)NCCO)c1ccc(Oc2nc3nc(-c4ccc(N5CCOCC5)cc4)c(Cl)cc3[nH]2)cn1 [Compound D-55]
- EC150 (compound concentration showing 150% relative to the control): 2700 nM
- Emax: 177%

Structure (SMILES): COC(=O)NC(C)(C)c1ccc(Oc2nc3nc(-c4ccc(N5CCOCC5)cc4)c(Cl)cc3[nH]2)cn1 [Compound D-56]
- EC150 (compound concentration showing 150% relative to the control): 68 nM
- Emax: 211%

Structure (SMILES): CC(=O)NC(C)(C)c1ccc(Oc2nc3nc(-c4ccc(C5(CO)CCC5)cc4)c(Cl)cc3[nH]2)cc1 [Compound D-58]
- EC150 (compound concentration showing 150% relative to the control): 66 nM
- Emax: 224%

Structure (SMILES): CC(=O)NC(C)(C)c1ccc(Oc2nc3nc(-c4ccc(NCCO)cc4)c(Cl)cc3[nH]2)cc1 [Compound D-62]
- EC150 (compound concentration showing 150% relative to the control): 80 nM
- Emax: 267%

Structure (SMILES): CC(C)(C)C(=O)NC(C)(C)c1ccc(Oc2nc3nc(-c4ccc(N5CCOCC5)cc4)c(Cl)cc3[nH]2)cc1 [Compound D-65]
- EC150 (compound concentration showing 150% relative to the control): 42 nM
- Emax: 252%

Structure (SMILES): CC(=O)NC(C)(C)c1ccc(Oc2nc3nc(-c4ccc(C5=CCOCC5)cc4)c(Cl)cc3[nH]2)cn1 [Compound D-70]
- EC150 (compound concentration showing 150% relative to the control): 180 nM
- Emax: 214%

Structure (SMILES): CC(C)(C(N)=O)c1ccc(Oc2nc3nc(-c4ccc(C5(CO)CC5)cc4)c(Cl)cc3[nH]2)cn1 [Compound D-71]
- EC150 (compound concentration showing 150% relative to the control): 860 nM
- Emax: 174%

Structure (SMILES): CC(C)(CO)c1ccc(Oc2nc3nc(-c4ccc(C5(CO)CC5)cc4)c(Cl)cc3[nH]2)cn1 [Compound D-72]
- EC150 (compound concentration showing 150% relative to the control): 220 nM
- Emax: 192%

Structure (SMILES): CC(=O)NC(C)(C)c1ccc(Oc2nc3nc(-c4ccc(C5=CCOCC5)cc4)c(Cl)cc3[nH]2)cc1 [Compound D-73]
- EC150 (compound concentration showing 150% relative to the control): 17 nM
- Emax: 254%

Structure (SMILES): CONC(=O)C(C)(C)c1ccc(Oc2nc3nc(-c4ccc(N5CCOCC5)cc4)c(Cl)cc3[nH]2)cn1 [Compound D-102]
- EC150 (compound concentration showing 150% relative to the control): 4300 nM
- Emax: 172%

Structure (SMILES): CC(=O)NC(C)(C)c1ccc(Oc2nc3nc(-c4ccc(C5(C(C)O)CC5)cc4)c(Cl)cc3[nH]2)cc1 [Compound D-103]
- EC150 (compound concentration showing 150% relative to the control): 110 nM
- Emax: 238%

Structure (SMILES): CC(=O)NC(C)(C)c1ccc(Oc2nc3nc(-c4ccc(C5CCOCC5)cc4)c(Cl)cc3[nH]2)cc1 [Compound D-107]
- EC150 (compound concentration showing 150% relative to the control): 26 nM
- Emax: 249%

Structure (SMILES): CC(=O)NC(C)(C)c1ccc(Oc2nc3nc(-c4ccc(C5=CCN(C)CC5)cc4)c(Cl)cc3[nH]2)cc1 [Compound D-108]
- EC150 (compound concentration showing 150% relative to the control): 3.3 nM
- Emax: 301%

Structure (SMILES): CC(=O)NCCCOc1ccc(-c2nc3nc(Oc4ccc(C(C)(C)NC(C)=O)cc4)[nH]c3cc2Cl)cc1 [Compound D-109]
- EC150 (compound concentration showing 150% relative to the control): 18 nM
- Emax: 270%

Structure (SMILES): CC(=O)NC(C)(C)c1ccc(Oc2nc3nc(-c4ccc(C5(CO)COC5)cc4)c(Cl)cc3[nH]2)cc1 [Compound D-110]
- EC150 (compound concentration showing 150% relative to the control): 270 nM
- Emax: 220%

Structure (SMILES): CC(=O)NC(C)(C)c1ccc(Oc2nc3nc(-c4ccc(C5COC5)cc4)c(Cl)cc3[nH]2)cc1 [Compound D-111]
- EC150 (compound concentration showing 150% relative to the control): 150 nM
- Emax: 238%
